SMILES strings stand for the structures.

Broadly, the IC50 is the concentration that gives 50% inhibition.

The target in assay [1] is T1, ATR kinase (Homo sapiens, UniProt Q13535).
T1 construct: purchased Eurofins 14-953
Description: ATR inhibition assay (mobility shift assay, FAM-RAD17 phosphorylation). In kind it is biochemical. As to conditions: substrate FAM-RAD17, ATR kinase (Eurofins). As for the experimental part: Assay 1: ATR Inhibition Assay
The assay was developed and conducted at Chempartner. All the test compounds were dissolved in 100% DMSO at concentration of 20 mM, then prepare compounds and conducted the assay as follows:
1) Transfer 80 µl20 mM compound to 40 µl of 100% DMSO in a 96-well plate.
2) Serially dilute the compound by transferring 20 µl to 60 µl of 100% DMSO in the next well and so forth for a total of 10 concentrations.
3) Add 100 µl of 100% DMSO to two empty wells for no compound control and no enzyme control in the same 96-well plate. Mark the plate as source plate.
4) Transfer 40 µl of compound from source plate to a new 384-well plate as the intermediate plate.
5) Transfer 60 nl compounds to assay plate by Echo.
No. D14JP007N) into Kinase base buffer (50 mM HEPES, pH 7.5; 0.0015% Brij-35; 0.01% Triton) to prepare 2x enzyme solution, then add 10 µl of 2x enzyme solution to each well of the 384-well assay plate, incubate at room temperature for 10 min.
8) Incubate at 28° C. for specified period of time. Add 40 µl of stop buffer (100 mM HEPES, pH 7.5; 0.015% Brij-35; 0.2% Coating Reagent #3; 50 mM EDTA) to stop reaction.
9) Collect data on Caliper. Convert conversion values to inhibition values.
wherein “max” stands for DMSO control; “min” stands for low control.
Fit the data in XLFit excel add-in version 5.4.0.8 to obtain IC50 values. Equation used is: […]
wherein X means concentration in a format not transformed to logarithms.

The test system of assay [2] is LoVo (CCL-229) human colorectal cancer cells. Description: Tumor cell anti-proliferation assay (CTG assay). The assay is classed as cell-based. As to conditions: 96 h incubation, CellTiter-Glo, IC50 (Y=50%). The text has this:
Assay 2: Tumor Cell Anti-proliferation Assay (CTG Assay)
Human colorectal cancer cells HT-29 (HTB-38) and LoVo (CCL-229) were selected for the CTG assay, the two cell lines were originally obtained from the American Type Culture Collection (ATCC). Add FBS and appropriate additives into base medium to prepare complete medium, then briefly rinse the cell layer with 0.25% (w/v) Trypsin-0.038% (w/v) EDTA solution to remove all traces of serum that contains trypsin inhibitor, after that, add appropriate volume of Trypsin-EDTA solution to flask and observe cells under an inverted microscope until cell layer is dispersed, at last, add appropriate volume of complete growth medium and aspirate cells by gently pipetting. Collect and count numbers with Vi-cell XR and adjust cell density, seed cells into 96-well opaque-walled clear bottom tissue-culture treated plates in the CO2 incubator for 20-24 hours. All the test compounds will be at 10 mM in DMSO. Compounds are then added to the cell media in 3-fold serial dilutions, the final DMSO concentration is 0.5%. Incubate plates for 96 h at 5% CO2, 37° C. Before the measurement, transfer the appropriate volume of CellTiter-Glo Buffer into the amber bottle containing CellTiter-Glo substrate to reconstitute the lyophilized enzyme/substrate mixture, mix gently, this forms the CellTiter-Glo Reagent (Promega Cat. No. G7573). Equilibrate the plate and its contents to room temperature for approximately 30 minutes, then add 100 µL of CellTiter-Glo Reagent to the assay plate, mix contents for 2 minutes on an orbital shaker to induce cell lysis, incubate at room temperature for 10 minutes to stabilize luminescent signal, at last paste the clear bottom with white back seal and record luminescence with Enspire. IC50 and GI50 values were calculated with XLFit curve fitting software using 4 Parameter Logistic Model Y=Bottom + (Top-Bottom)/(1+(IC50/X)^HillSlope).
The following Table 3 provides the IC50 (Y=50%) values for exemplary compounds of Formula (I).
For orientation: Cellular ATP, detected with luciferase, serves as a proxy for viable cell number.

T1 sequence (Q13535 whole entry): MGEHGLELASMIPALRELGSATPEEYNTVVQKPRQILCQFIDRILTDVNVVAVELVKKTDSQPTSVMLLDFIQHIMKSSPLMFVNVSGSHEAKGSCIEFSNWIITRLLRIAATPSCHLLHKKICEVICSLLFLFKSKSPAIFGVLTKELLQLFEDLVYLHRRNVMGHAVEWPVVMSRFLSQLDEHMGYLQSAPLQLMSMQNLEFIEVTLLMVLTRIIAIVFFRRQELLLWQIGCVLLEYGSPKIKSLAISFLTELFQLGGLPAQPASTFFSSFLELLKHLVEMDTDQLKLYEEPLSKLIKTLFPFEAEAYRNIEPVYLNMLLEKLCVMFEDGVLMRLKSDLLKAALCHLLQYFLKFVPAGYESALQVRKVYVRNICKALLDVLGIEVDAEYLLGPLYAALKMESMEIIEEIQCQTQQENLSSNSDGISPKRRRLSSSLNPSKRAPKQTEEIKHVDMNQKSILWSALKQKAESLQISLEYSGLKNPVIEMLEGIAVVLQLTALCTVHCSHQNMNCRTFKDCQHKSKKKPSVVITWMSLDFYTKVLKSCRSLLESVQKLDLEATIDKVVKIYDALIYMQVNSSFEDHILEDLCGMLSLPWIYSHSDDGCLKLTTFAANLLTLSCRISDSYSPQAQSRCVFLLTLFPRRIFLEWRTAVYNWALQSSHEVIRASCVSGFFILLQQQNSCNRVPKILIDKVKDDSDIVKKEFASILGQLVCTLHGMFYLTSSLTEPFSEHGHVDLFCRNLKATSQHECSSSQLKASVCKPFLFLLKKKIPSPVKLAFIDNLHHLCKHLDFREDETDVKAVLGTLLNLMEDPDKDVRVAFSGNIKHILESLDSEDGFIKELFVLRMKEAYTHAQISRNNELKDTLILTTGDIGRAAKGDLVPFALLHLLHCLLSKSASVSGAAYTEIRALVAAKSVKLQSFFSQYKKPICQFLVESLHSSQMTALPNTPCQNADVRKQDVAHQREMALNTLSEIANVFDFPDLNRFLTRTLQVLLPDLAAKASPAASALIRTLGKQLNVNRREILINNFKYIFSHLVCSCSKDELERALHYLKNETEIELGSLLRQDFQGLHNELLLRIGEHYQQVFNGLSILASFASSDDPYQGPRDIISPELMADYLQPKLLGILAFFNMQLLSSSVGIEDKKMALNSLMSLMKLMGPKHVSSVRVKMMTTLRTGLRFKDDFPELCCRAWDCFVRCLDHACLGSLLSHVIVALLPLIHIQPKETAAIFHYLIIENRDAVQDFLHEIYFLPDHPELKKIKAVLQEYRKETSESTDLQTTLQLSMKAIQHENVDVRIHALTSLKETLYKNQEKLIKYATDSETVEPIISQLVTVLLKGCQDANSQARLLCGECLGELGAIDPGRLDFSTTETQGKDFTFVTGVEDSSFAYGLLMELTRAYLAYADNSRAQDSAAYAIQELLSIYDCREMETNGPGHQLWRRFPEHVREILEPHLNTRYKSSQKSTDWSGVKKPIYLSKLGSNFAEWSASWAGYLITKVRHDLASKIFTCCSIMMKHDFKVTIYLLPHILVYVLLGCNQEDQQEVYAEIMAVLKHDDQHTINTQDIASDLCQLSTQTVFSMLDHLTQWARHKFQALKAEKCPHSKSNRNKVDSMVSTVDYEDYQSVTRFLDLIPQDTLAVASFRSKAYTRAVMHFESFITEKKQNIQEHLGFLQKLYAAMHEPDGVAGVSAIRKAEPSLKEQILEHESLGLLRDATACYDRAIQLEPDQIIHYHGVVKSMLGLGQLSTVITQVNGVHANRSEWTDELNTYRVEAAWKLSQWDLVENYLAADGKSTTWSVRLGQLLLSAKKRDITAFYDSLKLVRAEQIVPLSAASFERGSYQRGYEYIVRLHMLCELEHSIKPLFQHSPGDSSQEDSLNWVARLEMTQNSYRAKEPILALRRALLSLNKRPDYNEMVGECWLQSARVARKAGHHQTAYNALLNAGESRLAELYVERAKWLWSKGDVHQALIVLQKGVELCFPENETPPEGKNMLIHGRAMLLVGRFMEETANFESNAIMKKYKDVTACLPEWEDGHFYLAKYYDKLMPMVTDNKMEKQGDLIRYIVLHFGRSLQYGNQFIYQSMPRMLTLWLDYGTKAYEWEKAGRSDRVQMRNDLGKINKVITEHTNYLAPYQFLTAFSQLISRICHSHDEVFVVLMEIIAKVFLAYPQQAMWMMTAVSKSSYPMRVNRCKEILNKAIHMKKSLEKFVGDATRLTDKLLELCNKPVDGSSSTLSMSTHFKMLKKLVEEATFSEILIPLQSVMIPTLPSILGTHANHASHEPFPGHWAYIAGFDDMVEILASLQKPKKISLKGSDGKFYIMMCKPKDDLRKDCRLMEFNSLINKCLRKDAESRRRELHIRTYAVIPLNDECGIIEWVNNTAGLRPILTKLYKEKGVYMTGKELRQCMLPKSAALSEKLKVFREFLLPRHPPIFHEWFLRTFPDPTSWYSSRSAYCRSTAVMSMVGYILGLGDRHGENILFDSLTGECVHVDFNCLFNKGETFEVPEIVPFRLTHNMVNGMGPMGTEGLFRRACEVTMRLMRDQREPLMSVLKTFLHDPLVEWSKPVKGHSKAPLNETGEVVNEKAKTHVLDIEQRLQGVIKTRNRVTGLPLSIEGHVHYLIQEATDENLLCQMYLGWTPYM
T1 sequence (Q8WXE1 whole entry partner): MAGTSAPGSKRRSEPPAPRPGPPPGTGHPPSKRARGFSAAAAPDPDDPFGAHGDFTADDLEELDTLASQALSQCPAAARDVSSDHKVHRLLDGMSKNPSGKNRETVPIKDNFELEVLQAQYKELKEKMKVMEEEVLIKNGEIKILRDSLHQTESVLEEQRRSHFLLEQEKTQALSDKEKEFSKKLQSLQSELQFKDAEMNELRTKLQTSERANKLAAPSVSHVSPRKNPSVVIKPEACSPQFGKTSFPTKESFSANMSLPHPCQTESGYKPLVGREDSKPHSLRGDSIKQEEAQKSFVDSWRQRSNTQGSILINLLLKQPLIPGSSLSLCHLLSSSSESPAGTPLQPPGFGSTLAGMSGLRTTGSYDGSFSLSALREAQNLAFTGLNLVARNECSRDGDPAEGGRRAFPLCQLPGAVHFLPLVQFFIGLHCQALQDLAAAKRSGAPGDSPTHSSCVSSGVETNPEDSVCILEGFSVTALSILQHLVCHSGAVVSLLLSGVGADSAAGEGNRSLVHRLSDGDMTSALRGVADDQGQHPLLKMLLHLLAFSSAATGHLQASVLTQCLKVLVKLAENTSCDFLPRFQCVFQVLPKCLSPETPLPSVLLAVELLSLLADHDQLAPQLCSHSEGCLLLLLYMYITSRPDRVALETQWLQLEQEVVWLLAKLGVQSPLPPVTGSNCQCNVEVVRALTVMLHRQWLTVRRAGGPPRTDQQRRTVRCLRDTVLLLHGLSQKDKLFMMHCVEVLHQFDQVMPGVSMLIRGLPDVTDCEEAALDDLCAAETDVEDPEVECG

Turning to `Cc1cc(Nc2cc(-c3c(C)nnn3C)cc(N3CCOC[C@H]3C)n2)[nH]n1` [Compound 23, 4-(dimethyl-1H-1,2,3-triazol-5-yl)-N-(3-methyl-1H-pyrazol-5-yl)-6-[(3R)-3-methylmorpholin-4-yl]pyridin-2-amine], the IC50 in assay [1] was 15.5 nM; in assay [2], 388 nM.
For the compound `C[C@@H]1COCCN1c1cc(C(C)(C)C#N)cc(Nc2ccn[nH]2)n1` [Compound 24, (R)-2-(2-((1H-pyrazol-5-yl)amino)-6-(3-methylmorpholino)pyridin-4-yl)-2-methylpropanenitrile], the IC50 in assay [1] amounted to 17 nM; in assay [2] it was 428 nM.
For the compound `Cc1cc(Nc2cc(C(C)(C)C#N)cc(N3CCOC[C@H]3C)n2)[nH]n1` [Compound 25, 2-methyl-2-{2-[(3-methyl-1H-pyrazol-5-yl)amino]-6-[(3R)-3-methylmorpholin-4-yl]pyridin-4-yl}propanenitrile], the IC50 in assay [1] stood at 11.8 nM; in assay [2] it was 309 nM.
In the case of `C[C@@H]1COCCN1c1cc(C(C)(C)S(C)(=O)=O)cc(Nc2ccn[nH]2)n1` [Compound 26, (R)-6-(3-methylmorpholino)-4-(2-(methylsulfonyl)propan-2-yl)-N-(1H-pyrazol-5-yl)pyridin-2-amine], the IC50 in assay [1] was 22 nM; in assay [2] it was 517 nM.
In the same order, the values of `Cc1cc(Nc2cc(C(C)(C)S(C)(=O)=O)cc(N3CCOC[C@H]3C)n2)[nH]n1` [Compound 27, 4-(2-methanesulfonylpropan-2-yl)-N-(3-methyl-1H-pyrazol-5-yl)-6-[(3R)-3-methylmorpholin-4-yl]pyridin-2-amine] are 15.7 nM and 564 nM.
On to `C[C@@H]1COCCN1c1cc(C(C)(C)C#N)nc(Nc2ccn[nH]2)n1` [Compound 28, (R)-2-(2-((1H-pyrazol-5-yl)amino)-6-(3-methylmorpholino)pyrimidin-4-yl)-2-methylpropanenitrile], for which the IC50 in assay [1] was determined as 30.4 nM; in assay [2], 406 nM.
Take `Cc1cc(Nc2cc(C3(C#N)CC3)cc(N3CCOC[C@H]3C)n2)[nH]n1` [Compound 35, 1-{2-[(3-methyl-1H-pyrazol-5-yl)amino]-6-[(3R)-3-methylmorpholin-4-yl]pyridin-4-yl}cyclopropane-1-carbonitrile]: the IC50 in assay [1] is 33.3 nM; in assay [2], 718 nM.
With `C[C@@H]1COCCN1c1cc(C2(C#N)CCCCC2)cc(Nc2ccn[nH]2)n1` [Compound 38, 1-{2-[(3R)-3-methylmorpholin-4-yl]-6-[(1H-pyrazol-5-yl)amino]pyridin-4-yl} cyclohexane-1-carbonitrile], the IC50 in assay [1] was 12.3 nM; in assay [2] it was 492 nM.
In the same order, the values of `C[C@@H]1COCCN1c1cc(C2(C#N)CCCCC2)nc(Nc2ccn[nH]2)n1` [Compound 41, (R)-1-(2-((1H-pyrazol-5-yl)amino)-6-(3-methylmorpholino)pyrimidin-4-yl)cyclohexane-1-carbonitrile] are 2.5 nM and 370 nM.
On to `C[C@@H]1COCCN1c1cc(C2(C#N)CCOCC2)nc(Nc2ccn[nH]2)n1` [Compound 42, (R)-4-(2-((1H-pyrazol-5-yl)amino)-6-(3-methylmorpholino)pyrimidin-4-yl) tetrahydro-2H-pyran-4-carbonitrile], for which the results for the IC50 in assay [1] and in assay [2] were 19.7 nM and 640 nM, respectively.
Taken in the same sequence, the figures for `C[C@@H]1COCCN1c1cc(C2(O)CCCCC2)cc(Nc2ccn[nH]2)n1` [Compound 43, (R)-1-(2-((1H-pyrazol-5-yl)amino)-6-(3-methylmorpholino)pyridin-4-yl) cyclohexan-1-ol] were 52.7 nM and 653 nM.

These data come from patent US20230339927A1, “ATR INHIBITORS AND USES THEREOF” (ANTENGENE DISCOVERY LIMITED, priority 2020, published 2023).
